Our source for the EC50, IC50 and AC50 values is ChEMBL document CHEMBL1201862, “PubChem BioAssay data set” (2004).

The nature of assay [1]: NIH-3T3 fibroblast cytotoxicity, dose response, cytotoxicity control, cell-based, fluorescence, Alamar Blue, secondary assay (AID 2327).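 Further: NIH-3T3 mouse fibroblasts cultured with fluconazole at 8 µg/mL.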 In kind it is functional.
The nature of assay [2]: C. albicans growth with fluconazole, confirmation, fluorescence, retest (AID 2467). Type of assay: functional, cell-based.
Assay [3] addresses T1, Serine/threonine-protein phosphatase (Candida dubliniensis (strain CD36 / CBS 7987 / NCPF 3949 / NRRLY-17841) (Yeast), UniProt B9W6M3).
T1 sequence (B9W6M3 whole entry): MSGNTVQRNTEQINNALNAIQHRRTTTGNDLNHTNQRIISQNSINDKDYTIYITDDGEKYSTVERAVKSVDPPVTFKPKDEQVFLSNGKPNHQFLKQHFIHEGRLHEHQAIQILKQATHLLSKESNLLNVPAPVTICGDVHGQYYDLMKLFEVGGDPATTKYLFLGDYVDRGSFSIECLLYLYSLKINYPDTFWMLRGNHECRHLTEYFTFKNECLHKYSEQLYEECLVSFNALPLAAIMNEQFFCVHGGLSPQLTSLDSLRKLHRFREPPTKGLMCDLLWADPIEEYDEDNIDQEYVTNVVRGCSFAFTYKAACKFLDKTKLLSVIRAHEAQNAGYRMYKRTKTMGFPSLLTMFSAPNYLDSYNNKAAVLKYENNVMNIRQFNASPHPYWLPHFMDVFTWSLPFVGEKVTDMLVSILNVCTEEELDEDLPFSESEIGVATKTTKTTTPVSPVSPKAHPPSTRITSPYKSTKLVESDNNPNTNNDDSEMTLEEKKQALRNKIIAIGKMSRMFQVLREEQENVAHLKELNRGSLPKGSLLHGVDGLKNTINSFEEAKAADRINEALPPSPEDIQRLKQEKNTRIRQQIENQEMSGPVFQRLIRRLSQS
The experiment in a line: calcineurin pathway inhibitors in yeast reporter, dose response, S. cerevisiae, CDRE-lacZ, luminescence, secondary (AID 2388).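 Further: yeast reporter cells carrying a calcineurin-responsive lacZ construct stimulated with calcium chloride; luminescent beta-galactosidase reporter signal in whole cells rather than isolated phosphatase activity; potency for inhibition where a drop in reporter signal means calcineurin blockade.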 Type of assay: functional, cell-based.

In assay [4] the target is T1, Serine/threonine-protein phosphatase. The experiment in a line: Fluorescence Cell-Based Secondary Assay to Identify Inhibitors of Calcineurin. [Related pubchem assays (depositor defined):AID1979, AID2007]. In kind it is functional.
The target in assay [5] is ATP-dependent molecular chaperone HSP82 (Candida albicans (strain WO-1) (Yeast), UniProt C4YTQ8). The experiment in a line: loss of DOC-induced GRE-beta-galactosidase reporter signal, dose response, Hsp90 inhibitor project, S. cerevisiae, luminescence (AID 2400).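 Further: beta-galactosidase luminescence from glucocorticoid response element reporter as proxy for Hsp90 function; inhibitor potency where signal loss means Hsp90 inhibition.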 Type of assay: functional, cell-based.
In assay [6] the test system is BJ. The experiment in a line: cytotoxicity toward BJ-TERT fibroblasts, dose response, cell-based, RAS-independent, luminescence (AID 1933). In kind it is functional. As to conditions: Homo sapiens.
Assay [7] deals with BJ. The experiment in a line: cells. Type of assay: functional, cell-based. As to conditions: Homo sapiens.
Assay [8] has as its target Luciferin 4-monooxygenase (Photinus pyralis, UniProt P08659). The experiment in a line: firefly luciferase enzyme inhibitors, dose response, biochemical, luminescence (AID 1891).
Assay [9] is described as follows: Luminescence Cell-Based Dose Confirmation HTS to Identify Inhibitors of Platelet Dense Granule Release. [Related pubchem assays: 1663 (Primary HTS), 1678 (Summary of Project)]. Type of assay: functional.
The test system of assay [10] is BJ. The experiment in a line: cytotoxicity toward BJ-TERT-LT-ST fibroblasts, dose response, cell-based, RAS-independent, luminescence (AID 1935).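 Further: BJ fibroblasts immortalized with TERT plus LT and ST oncogenes.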 Type of assay: functional. The conditions noted are these: Homo sapiens.
A short description of assay [11]: cytotoxicity toward DRD oncogenic fibroblasts, dose response, cell-based, non-viral oncogenic, luminescence (AID 1934). In kind it is functional. The conditions noted are these: Homo sapiens.
Assay [12] is described as follows: cytotoxicity in HEK-293T cells, dose response, cytotoxicity control for TCR NF-kB inhibitor project, luminescence, T-cell screen hits (AID 489026).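 Further: cells exposed to compound about 14 hours before the viability readout.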 In kind it is functional, cell-based.
Assay [13] deals with HEK293. The experiment in a line: NOD1 signaling inhibitors, primary screen, cell-based, luminescence, uHTS (AID 1578). As to conditions: Homo sapiens. Type of assay: functional.
Assay [14] relates to HEK293. Put plainly: cells. Type of assay: functional, cell-based. As to conditions: Homo sapiens.
Assay [15] deals with HEK293. Put plainly: cells. In kind it is functional, cell-based. As to conditions: Homo sapiens. The source holds these as a separate data set.
Assay [16] addresses Nucleotide-binding oligomerization domain-containing protein 2 (Homo sapiens, UniProt Q9HC29). Put plainly: NOD2 signaling inhibitors, cell-based, luminescence, uHTS, HEK293 (AID 1566). Type of assay: functional.
Assay [17] deals with HEK293. The experiment in a line: NOD2 signaling inhibitors in MDP-stimulated cells, cell-based, uHTS, luminescence (AID 2001). Type of assay: functional. As to conditions: Homo sapiens.
The test system of assay [18] is HEK293. Put plainly: cells. As to conditions: Homo sapiens. In kind it is functional, cell-based. The source holds these as a separate data set.
A further assay deals with INS1. The experiment in a line: beta cell apoptosis inhibitors, cytokine rescue, dose response, luminescence, retest (AID 449756).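 Further: cell death triggered by IL-1 beta plus TNF-alpha plus IFN-gamma mixture; protective hits raise ATP signal compared with cytokine alone wells.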 Type of assay: functional, cell-based. The conditions noted are these: Rattus norvegicus.
Assay [19] is described as follows: Shn3 3'UTR reporter inhibitors, dose response, cell-based, Clone20 osteoblasts, firefly luciferase, cherry-picked (AID 624132).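 Further: firefly luciferase luminescence from reporter carrying the Shn3 3'UTR in osteoblasts.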 Type of assay: functional.
Assay [20] is described as follows: HepG2 cell cytotoxicity, dose response, cytotoxicity control for Shn3 inhibitor project, CellTiter-Glo, cherry-picked (AID 624134). In kind it is functional, cell-based. On the technique in general: ATP-based viability assays read luminescence as a measure of living cells.
Assay [21] concerns the target T2, COUP transcription factor 2 (Homo sapiens, UniProt P24468).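 Further: HEK293 cells transiently cotransfected with COUP-TFII expression vector and reporter; luciferase reporter luminescence driven by COUP-TFII from the pX2-168 reporter plasmid.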
T2 sequence (P24468 whole entry): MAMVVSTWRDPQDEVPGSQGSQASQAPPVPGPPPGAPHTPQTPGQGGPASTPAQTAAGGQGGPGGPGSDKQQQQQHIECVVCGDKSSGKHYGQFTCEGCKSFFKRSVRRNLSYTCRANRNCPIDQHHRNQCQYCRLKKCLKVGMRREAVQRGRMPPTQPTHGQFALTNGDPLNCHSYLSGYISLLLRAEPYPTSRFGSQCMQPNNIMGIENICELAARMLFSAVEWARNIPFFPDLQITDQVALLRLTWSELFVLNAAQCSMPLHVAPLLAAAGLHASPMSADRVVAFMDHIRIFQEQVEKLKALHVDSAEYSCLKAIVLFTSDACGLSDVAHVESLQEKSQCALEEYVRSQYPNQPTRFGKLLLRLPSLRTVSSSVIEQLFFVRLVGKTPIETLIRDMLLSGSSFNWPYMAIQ
Put plainly: Luminescence-based cell-based high throughput dose response assay to identify inhibitors of COUP-TFII (NR2F2). In kind it is functional.

The nature of assay [22]: reduction of Shn3 3'UTR firefly luciferase signal, dose response, Schnurri-3 inhibitor project, cell-based, Clone20 osteoblasts, cherry-pick, set 2 (AID 720490).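 Further: actives lower the luminescence signal as inhibitors.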 In kind it is functional.

Activity calls are given as the source filed them. For most assays here, no stated cut-off is given here; in the data, actives have a measured EC50 and inactives only a lower limit.

Luciferin 4-monooxygenase, sequence (P08659 whole entry): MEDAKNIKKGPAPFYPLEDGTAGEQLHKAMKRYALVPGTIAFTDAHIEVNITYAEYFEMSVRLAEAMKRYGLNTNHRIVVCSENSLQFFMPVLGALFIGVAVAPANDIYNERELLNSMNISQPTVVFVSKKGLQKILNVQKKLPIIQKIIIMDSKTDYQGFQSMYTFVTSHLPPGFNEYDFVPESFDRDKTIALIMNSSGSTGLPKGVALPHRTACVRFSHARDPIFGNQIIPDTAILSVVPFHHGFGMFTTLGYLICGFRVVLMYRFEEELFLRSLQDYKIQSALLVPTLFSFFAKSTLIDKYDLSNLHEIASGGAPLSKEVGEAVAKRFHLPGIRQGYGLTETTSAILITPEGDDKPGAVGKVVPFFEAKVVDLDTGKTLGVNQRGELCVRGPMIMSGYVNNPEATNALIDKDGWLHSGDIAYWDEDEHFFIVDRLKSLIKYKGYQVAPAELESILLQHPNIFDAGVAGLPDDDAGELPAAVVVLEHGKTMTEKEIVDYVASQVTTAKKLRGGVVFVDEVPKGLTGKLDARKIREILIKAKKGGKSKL
ATP-dependent molecular chaperone HSP82, sequence (C4YTQ8 whole entry): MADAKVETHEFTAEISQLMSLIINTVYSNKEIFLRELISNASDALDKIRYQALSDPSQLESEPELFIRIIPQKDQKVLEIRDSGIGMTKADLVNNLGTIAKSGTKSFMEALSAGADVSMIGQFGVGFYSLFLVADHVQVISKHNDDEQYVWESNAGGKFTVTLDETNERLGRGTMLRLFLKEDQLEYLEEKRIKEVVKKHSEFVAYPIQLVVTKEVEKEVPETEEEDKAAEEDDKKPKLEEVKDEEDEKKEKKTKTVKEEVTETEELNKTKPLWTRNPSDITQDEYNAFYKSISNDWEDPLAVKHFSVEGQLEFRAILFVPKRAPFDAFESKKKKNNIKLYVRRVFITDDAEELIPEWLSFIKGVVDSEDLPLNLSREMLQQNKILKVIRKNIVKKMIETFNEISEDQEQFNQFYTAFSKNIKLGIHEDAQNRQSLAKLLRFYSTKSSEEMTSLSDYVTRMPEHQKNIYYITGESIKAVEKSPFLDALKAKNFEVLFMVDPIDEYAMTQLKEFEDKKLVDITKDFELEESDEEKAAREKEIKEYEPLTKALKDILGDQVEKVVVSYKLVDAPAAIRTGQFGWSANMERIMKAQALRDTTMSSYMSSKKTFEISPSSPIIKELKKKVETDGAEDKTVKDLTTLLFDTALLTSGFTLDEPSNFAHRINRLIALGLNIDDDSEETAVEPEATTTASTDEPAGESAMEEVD
Nucleotide-binding oligomerization domain-containing protein 2, sequence (Q9HC29 whole entry, the tested form may be a part): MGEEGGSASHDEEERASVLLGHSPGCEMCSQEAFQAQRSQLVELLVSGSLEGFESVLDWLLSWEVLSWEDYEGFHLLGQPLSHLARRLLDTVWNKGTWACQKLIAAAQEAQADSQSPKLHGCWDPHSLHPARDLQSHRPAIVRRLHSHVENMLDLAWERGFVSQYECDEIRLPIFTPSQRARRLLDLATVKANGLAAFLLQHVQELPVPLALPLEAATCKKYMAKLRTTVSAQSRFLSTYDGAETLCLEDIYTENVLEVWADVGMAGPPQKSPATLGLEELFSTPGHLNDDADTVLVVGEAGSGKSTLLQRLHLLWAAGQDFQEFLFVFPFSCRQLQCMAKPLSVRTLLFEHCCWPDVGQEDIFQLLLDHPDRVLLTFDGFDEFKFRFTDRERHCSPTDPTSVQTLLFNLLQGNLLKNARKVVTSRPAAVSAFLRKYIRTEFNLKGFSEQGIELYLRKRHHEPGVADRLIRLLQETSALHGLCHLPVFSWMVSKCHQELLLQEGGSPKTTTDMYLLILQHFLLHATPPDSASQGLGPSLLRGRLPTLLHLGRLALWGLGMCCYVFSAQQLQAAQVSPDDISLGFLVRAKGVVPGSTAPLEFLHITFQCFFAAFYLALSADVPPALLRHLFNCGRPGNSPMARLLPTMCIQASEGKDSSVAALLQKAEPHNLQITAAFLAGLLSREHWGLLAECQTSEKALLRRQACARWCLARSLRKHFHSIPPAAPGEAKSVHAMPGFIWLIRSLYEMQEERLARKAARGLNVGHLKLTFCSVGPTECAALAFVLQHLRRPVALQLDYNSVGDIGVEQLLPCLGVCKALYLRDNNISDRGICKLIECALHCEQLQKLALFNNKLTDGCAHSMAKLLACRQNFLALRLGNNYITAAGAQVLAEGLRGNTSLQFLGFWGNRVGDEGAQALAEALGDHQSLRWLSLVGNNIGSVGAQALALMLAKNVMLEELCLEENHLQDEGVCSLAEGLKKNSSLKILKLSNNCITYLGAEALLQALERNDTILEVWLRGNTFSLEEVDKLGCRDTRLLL

What is called EC50 is the concentration that produces a half-maximal response. With `Cc1ccc(Nc2nc(N)c([N+](=O)[O-])c(N3CCC(C)CC3)n2)cc1C`, the EC50 was > 150 µM (inactive) in [1]; 0.207 µM (active) in assay [2]; > 180 µM (inactive) in assay [3]; 9.17 µM (active) in [4]; 4.42 µM (active) in assay [5].

Usually IC50 stands for the concentration that inhibits the measured activity by half. As for `Cc1ccc(S(=O)(=O)Cc2ccc(C(=O)N3CCN(c4cccc(C)c4C)CC3)o2)cc1`, the EC50 was 8.13 µM (inconclusive) in the assay with BJ [6]; 18 µM (active) with BJ [7]; 57.2 µM (active) in [8]; > 112 µM (not active) in assay [9]; 4.2 µM (active) in the assay on BJ [10]; 13.3 µM (inconclusive) in assay [11]. In assay [12], the IC50 was > 80 µM (inactive).

For orientation: AC50 means the concentration at which the activity in the assay is half-maximal. Regarding `Cc1cc(S(=O)(=O)NCc2ccncc2)c(C)cc1Br`, the figures for the concentration giving a half-maximal response (EC50) (in the assay with HEK293 [13]; in assay [16]) were 4.2 µM (active) and 5.82 µM (active), respectively. The IC50 is 9.24 µM (active) with HEK293 [14]; > 20 µM (inactive) with HEK293 [15]; 17.9 µM (inactive) with HEK293 [17]; > 20 µM (inactive) in the assay on HEK293 [18]; 6.41 µM (active) in assay [21]. In addition, the AC50 in the assay with INS1 was 4.42 µM (active); in assay [19], 1.23 µM (active); in assay [20] it was 41.1 µM (active); in assay [22], 1.02 µM (active).
